# Assay results: ChEMBL document CHEMBL3751833, “Discovery of potent aryl-substituted 3-[(3-methylpyridine-2-carbonyl) amino]-2,4-dimethyl-benzoic acid EP4 antagonists with improved pharmacokinetic profile” (Bioorg Med Chem Lett, 2016)
# The source made the active and inactive calls. The calls are words filed in the database; no cut-off is given here.
# Legend:
# [1] = Oral bioavailability in rat; assay type: ADME, organism-based; details: in vivo
# [2] = (§1) Oral bioavailability in rat at 5 mg/kg; assay type: ADME, organism-based; details: in vivo
# [3] = Clearance in rat at 1 mg/kg, iv; assay type: ADME, organism-based; details: in vivo
# [4] = (§2) AUC in rat at 5 mg/kg, po; assay type: ADME, organism-based; details: in vivo
# [5] = target: T1, Prostaglandin E2 receptor EP4 subtype (Homo sapiens, UniProt P35408); assay: Antagonist activity at EP4 receptor in LPS-stimulated human whole blood assessed as inhibition of PGE2-induced TNF-alpha release pretreated for 30 mins followed by addition of PGE2 measured after 20 to 24 hrs by immunoassay; assay type: tissue-based
# [6] = Aqueous solubility of compound at pH 6 after 20 hrs by HPLC analysis; assay type: physicochemical
# Rattus norvegicus [7] = assay: Antiinflammatory activity in adjuvant-induced arthritis rat model assessed as inhibition of paw swelling at 10 mg/kg administered 15 days post adjuvant challenge; assay type: functional, organism-based
# Rattus norvegicus [8] = assay: Analgesic activity in […]-induced rat joint pain model assessed as inhibition of differential weight bearing at 5 mg/kg, po measured 30 mins post dose; assay type: functional, organism-based
# [9] = target: T1, Prostaglandin E2 receptor EP4 subtype; assay: Antagonist activity at human EP4 receptor expressed in HEK293 cells assessed as inhibition of PGE2-stimulated cAMP production after 1 hr by HTRF assay; assay type: functional, cell-based
# [10] = target: Beta-1 adrenergic receptor (Homo sapiens) (UniProt P08588); assay: Inhibition of human beta-1 adrenergic receptor at 10 uM
# [11] = target: Adrenergic receptor alpha-1 (Rattus norvegicus) (UniProt P15823+P23944+P43140); assay: Inhibition of rat alpha-1 adrenergic receptor at 10 uM
# Rattus norvegicus [12] = assay: Antiinflammatory activity in adjuvant-induced arthritis rat model assessed as inhibition of paw swelling at 10 and 30 mg/kg administered 15 days post adjuvant challenge; assay type: functional, organism-based
# [13] = target: Prostaglandin E2 receptor EP2 subtype (Homo sapiens, UniProt P43116); assay: Binding affinity to human EP2 receptor
# Cytochrome P450 2B6 = Cytochrome P450 2B6 (Homo sapiens, UniProt P20813); assay: Inhibition of CYP2B6 (unknown origin); assay type: ADME
# [14] = Oral bioavailability in dog at 5 mg/kg; assay type: ADME, organism-based, Canis lupus familiaris; details: in vivo
# Cytochrome P450 2C19 = Cytochrome P450 2C19 (Homo sapiens, UniProt P33261); assay: Inhibition of CYP2C19 (unknown origin); assay type: ADME
# [15] = target: Sodium-dependent noradrenaline transporter (Homo sapiens) (UniProt P23975); assay: Inhibition of human Noradrenaline transporter at 10 uM
# [16] = Volume of distribution at steady state in dog at 1 mg/kg, iv and 5 mg/kg, po; assay type: ADME, organism-based, Canis lupus familiaris; details: in vivo, read-out: Vdss
# [17] = target: L-type calcium channel, diltiazem binding site (Homo sapiens, UniProt O60840+Q01668+Q13698+Q13936); assay: Inhibition of L-type calcium channel diltiazem binding site (unknown origin) at 10 uM; assay type: protein assay
# [18] = Cmax in dog at 5 mg/kg, po; assay type: ADME, organism-based, Canis lupus familiaris; design: dose 5 mg/kg, route oral; details: in vivo
# [19] = target: Muscarinic acetylcholine receptor M2 (Homo sapiens) (UniProt P08172); assay: Inhibition of human muscarinic M2 receptor at 10 uM
# [20] = target: Mu-type opioid receptor (Homo sapiens) (UniProt P35372); assay: Inhibition of human mu opoid receptor at 10 uM
# Cytochrome P450 2D6 = Cytochrome P450 2D6 (Homo sapiens, UniProt P10635); assay: Inhibition of CYP2D6 (unknown origin); assay type: ADME
# [21] = target: L-type calcium channel, dihydropyridine binding site (Homo sapiens, UniProt O60840+Q01668+Q13698+Q13936); assay: Inhibition of L-type calcium channel dihydropyridine binding site (unknown origin) at 10 uM; assay type: protein assay
# Cytochrome P450 2C8 = Cytochrome P450 2C8 (Homo sapiens, UniProt P10632); assay: Inhibition of CYP2C8 (unknown origin); assay type: ADME
# [22] = target: Histamine H1 receptor (Homo sapiens) (UniProt P35367); assay: Inhibition of human histamine H1 receptor at 10 uM
# [23] = AUC in dog at 5 mg/kg, po; assay type: ADME, organism-based, Canis lupus familiaris; details: in vivo
# Cytochrome P450 2C9 = Cytochrome P450 2C9 (Homo sapiens, UniProt P11712); assay: Inhibition of CYP2C9 (unknown origin); assay type: ADME
# [24] = target: Adrenergic receptor alpha-2 (Rattus norvegicus) (UniProt P22086+P19328+P22909); assay: Inhibition of rat alpha-2 adrenergic receptor at 10 uM
# Cytochrome P450 3A4 = Cytochrome P450 3A4 (Homo sapiens, UniProt P08684); assay: Inhibition of CYP3A4 (unknown origin); assay type: ADME
# [25] = Clearance in dog at 1 mg/kg, iv; assay type: ADME, organism-based, Canis lupus familiaris; details: in vivo
# [26] = target: Adenosine receptor A3 (Homo sapiens) (UniProt P0DMS8); assay: Inhibition of human adenosine A3 receptor at 10 uM
# [27] = Cmax in rat at 5 mg/kg, po; assay type: ADME, organism-based; design: dose 5 mg/kg, route oral; details: in vivo
# [28] = target: Acetylcholinesterase (Homo sapiens) (UniProt P22303); assay: Inhibition of human acetylcholinesterase at 10 uM
# [29] = Half life in dog at 5 mg/kg, po; assay type: ADME, organism-based, Canis lupus familiaris; details: in vivo
# [30] = target: D(1A) dopamine receptor (Homo sapiens) (UniProt P21728); assay: Inhibition of human dopamine D1 receptor at 10 uM
# [31] = target: Prostaglandin E2 receptor EP1 subtype (Homo sapiens, UniProt P34995); assay: Binding affinity to human EP1 receptor
# [32] = target: D(2) dopamine receptor (Homo sapiens) (UniProt P14416); assay: Inhibition of human dopamine D2s receptor at 10 uM
# Rattus norvegicus [33] = species: Rattus norvegicus; assay: Inhibition of rat chloride channel at 10 uM
# Rattus norvegicus [34] = assay: Analgesic activity in […]-induced po dosed rat joint pain model assessed as inhibition of differential weight bearing measured 30 mins post dose; assay type: functional, organism-based
# [35] = Half life in rat at 5 mg/kg, po; assay type: ADME, organism-based; details: in vivo
# [36] = target: Voltage-gated inwardly rectifying potassium channel KCNH2 (Homo sapiens, UniProt Q12809); assay: Displacement of [3H]astemizole from human ERG upto 100 uM
# [37] = Volume of distribution at steady state in rat at 1 mg/kg, iv and 5 mg/kg, po; assay type: ADME, organism-based; details: in vivo, read-out: Vdss
# Cytochrome P450 1A2 = Cytochrome P450 1A2 (Homo sapiens, UniProt P05177); assay: Inhibition of CYP1A2 (unknown origin); assay type: ADME
# [38] = target: L-type calcium channel, verapamil binding site (Homo sapiens, UniProt O60840+Q01668+Q13698+Q13936); assay: Inhibition of L-type calcium channel verapamil binding site (unknown origin) at 10 uM; assay type: protein assay
# [39] = target: Prostaglandin E2 receptor EP3 subtype (Homo sapiens, UniProt P43115); assay: Binding affinity to human EP3 receptor
# [40] = target: Beta-2 adrenergic receptor (Homo sapiens) (UniProt P07550); assay: Inhibition of human beta-2 adrenergic receptor at 10 uM
# Rattus norvegicus [41] = assay: as §1; assay type: ADME, organism-based; details: in vivo
# Rattus norvegicus [42] = assay: as §2; assay type: ADME, organism-based; details: in vivo
# T1 sequence (P35408 whole entry): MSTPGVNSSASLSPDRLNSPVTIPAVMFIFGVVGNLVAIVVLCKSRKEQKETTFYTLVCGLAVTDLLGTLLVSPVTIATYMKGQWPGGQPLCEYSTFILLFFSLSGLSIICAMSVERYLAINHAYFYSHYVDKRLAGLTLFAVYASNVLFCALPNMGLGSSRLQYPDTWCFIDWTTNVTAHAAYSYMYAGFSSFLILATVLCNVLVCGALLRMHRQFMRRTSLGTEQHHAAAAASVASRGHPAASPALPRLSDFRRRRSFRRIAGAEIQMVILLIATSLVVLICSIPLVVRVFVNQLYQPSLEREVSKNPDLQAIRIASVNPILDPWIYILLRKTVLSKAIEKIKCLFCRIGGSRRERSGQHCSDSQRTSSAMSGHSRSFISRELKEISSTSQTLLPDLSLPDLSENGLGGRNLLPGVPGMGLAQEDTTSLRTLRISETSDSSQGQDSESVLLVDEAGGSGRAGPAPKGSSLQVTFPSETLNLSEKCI
# Chain of Prostaglandin E2 receptor EP1 subtype (P34995 whole entry): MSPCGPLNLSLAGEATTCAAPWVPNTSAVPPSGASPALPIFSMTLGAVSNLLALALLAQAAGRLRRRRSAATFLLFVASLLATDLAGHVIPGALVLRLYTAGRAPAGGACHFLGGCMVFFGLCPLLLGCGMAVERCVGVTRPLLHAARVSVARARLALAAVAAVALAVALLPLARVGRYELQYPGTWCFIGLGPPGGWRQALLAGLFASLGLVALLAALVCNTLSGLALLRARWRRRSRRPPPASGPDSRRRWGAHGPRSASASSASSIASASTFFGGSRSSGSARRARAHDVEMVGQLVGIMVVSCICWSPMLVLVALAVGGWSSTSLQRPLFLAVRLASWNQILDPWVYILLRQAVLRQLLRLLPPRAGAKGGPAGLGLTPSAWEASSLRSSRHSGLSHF
# Chain of Prostaglandin E2 receptor EP2 subtype (P43116 whole entry): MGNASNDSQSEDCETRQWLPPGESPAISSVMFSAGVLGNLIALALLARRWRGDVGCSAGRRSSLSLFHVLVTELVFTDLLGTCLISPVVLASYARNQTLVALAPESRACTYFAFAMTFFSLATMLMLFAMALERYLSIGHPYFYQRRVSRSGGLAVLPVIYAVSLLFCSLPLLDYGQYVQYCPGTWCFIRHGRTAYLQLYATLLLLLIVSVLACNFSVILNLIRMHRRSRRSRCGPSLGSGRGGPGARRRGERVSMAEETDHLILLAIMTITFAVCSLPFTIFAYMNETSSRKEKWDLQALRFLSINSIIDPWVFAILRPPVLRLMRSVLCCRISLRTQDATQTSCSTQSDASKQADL
# Chain of Prostaglandin E2 receptor EP3 subtype (P43115 whole entry): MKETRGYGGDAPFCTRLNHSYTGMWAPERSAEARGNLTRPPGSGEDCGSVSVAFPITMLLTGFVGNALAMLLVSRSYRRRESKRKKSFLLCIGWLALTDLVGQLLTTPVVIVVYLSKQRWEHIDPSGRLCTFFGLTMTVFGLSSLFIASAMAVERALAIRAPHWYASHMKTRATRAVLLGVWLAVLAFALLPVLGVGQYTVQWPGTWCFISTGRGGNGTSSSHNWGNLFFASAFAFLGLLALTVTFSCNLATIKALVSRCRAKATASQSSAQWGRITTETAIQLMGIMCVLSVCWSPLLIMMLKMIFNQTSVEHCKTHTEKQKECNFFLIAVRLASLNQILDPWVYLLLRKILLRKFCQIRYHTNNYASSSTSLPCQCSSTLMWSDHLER
# Chain of Cytochrome P450 2C19 (P33261 whole entry): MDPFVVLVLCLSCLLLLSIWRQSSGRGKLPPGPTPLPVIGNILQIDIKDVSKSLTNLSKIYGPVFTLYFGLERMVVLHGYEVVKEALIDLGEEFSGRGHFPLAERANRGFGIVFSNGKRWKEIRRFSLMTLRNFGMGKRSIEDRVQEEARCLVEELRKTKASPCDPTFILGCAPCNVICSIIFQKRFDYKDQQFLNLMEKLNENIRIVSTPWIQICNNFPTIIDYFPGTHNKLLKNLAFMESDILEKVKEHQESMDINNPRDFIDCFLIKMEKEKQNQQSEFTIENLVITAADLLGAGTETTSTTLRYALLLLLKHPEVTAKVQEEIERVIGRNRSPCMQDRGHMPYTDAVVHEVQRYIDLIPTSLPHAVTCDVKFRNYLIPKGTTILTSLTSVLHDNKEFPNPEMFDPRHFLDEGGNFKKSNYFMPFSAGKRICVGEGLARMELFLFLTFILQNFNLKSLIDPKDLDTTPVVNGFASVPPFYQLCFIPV
# Chain of Cytochrome P450 2C8 (P10632 whole entry): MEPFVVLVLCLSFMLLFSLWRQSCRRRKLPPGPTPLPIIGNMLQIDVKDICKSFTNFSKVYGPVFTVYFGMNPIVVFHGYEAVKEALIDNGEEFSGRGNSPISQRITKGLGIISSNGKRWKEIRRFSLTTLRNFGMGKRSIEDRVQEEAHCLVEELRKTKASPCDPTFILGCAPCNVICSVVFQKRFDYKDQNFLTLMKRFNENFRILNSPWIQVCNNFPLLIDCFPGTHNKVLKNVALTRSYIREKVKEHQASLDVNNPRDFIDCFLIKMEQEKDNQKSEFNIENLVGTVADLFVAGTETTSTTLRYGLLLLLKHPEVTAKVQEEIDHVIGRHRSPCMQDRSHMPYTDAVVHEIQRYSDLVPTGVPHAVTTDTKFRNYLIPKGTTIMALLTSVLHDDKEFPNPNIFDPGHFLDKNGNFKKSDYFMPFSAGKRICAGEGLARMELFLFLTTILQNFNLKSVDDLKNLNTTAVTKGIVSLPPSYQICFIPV
# Chain of Histamine H1 receptor (Homo sapiens) (P35367 whole entry): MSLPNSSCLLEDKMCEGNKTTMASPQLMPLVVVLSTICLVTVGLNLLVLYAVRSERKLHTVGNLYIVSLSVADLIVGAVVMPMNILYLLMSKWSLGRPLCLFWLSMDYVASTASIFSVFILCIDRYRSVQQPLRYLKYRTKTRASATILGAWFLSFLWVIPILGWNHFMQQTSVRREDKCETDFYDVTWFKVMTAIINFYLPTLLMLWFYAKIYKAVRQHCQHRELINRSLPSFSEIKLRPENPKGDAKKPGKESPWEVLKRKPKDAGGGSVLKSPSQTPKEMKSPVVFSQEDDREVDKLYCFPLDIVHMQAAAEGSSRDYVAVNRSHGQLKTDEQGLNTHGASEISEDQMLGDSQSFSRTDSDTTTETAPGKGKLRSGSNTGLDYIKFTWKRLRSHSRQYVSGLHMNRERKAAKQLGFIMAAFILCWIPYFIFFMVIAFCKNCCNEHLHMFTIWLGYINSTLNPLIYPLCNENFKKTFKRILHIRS
# Chain of Muscarinic acetylcholine receptor M2 (Homo sapiens) (P08172 whole entry): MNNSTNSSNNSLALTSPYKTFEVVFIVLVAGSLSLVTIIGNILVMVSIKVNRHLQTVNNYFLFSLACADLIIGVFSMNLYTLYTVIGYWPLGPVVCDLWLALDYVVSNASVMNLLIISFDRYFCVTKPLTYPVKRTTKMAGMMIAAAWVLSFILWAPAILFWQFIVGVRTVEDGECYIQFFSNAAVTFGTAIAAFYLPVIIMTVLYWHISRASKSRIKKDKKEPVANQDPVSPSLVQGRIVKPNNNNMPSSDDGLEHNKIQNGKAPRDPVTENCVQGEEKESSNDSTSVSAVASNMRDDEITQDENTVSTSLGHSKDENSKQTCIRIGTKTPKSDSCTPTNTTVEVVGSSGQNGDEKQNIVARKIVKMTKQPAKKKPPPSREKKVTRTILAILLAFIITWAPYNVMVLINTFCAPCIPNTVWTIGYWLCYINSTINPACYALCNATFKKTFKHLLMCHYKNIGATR
# Chain of D(2) dopamine receptor (Homo sapiens) (P14416 whole entry): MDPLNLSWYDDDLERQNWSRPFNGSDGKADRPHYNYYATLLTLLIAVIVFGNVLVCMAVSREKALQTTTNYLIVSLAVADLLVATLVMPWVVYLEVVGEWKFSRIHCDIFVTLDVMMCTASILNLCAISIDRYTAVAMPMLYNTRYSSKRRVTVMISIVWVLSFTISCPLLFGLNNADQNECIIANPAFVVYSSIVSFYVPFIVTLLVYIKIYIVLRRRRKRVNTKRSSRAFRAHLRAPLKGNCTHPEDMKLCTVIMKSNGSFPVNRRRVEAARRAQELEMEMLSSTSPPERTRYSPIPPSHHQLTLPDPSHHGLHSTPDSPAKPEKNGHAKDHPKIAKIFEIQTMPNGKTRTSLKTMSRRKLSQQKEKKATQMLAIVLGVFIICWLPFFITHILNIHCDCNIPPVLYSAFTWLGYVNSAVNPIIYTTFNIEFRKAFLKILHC
# Chain of Cytochrome P450 2B6 (P20813 whole entry): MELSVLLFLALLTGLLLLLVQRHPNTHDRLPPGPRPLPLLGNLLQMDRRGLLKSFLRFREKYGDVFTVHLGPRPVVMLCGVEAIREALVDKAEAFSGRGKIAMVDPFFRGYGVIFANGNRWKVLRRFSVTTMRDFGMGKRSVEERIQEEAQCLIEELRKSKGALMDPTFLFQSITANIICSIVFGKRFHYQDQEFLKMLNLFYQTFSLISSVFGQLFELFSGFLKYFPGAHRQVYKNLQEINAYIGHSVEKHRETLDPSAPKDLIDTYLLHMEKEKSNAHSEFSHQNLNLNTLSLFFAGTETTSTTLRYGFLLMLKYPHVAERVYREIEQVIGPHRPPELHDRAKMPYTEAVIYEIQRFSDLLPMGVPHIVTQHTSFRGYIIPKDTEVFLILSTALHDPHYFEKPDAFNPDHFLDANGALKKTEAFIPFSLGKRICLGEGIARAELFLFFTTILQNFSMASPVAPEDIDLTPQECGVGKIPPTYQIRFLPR
# Chain of Beta-2 adrenergic receptor (Homo sapiens) (P07550 whole entry, looked up): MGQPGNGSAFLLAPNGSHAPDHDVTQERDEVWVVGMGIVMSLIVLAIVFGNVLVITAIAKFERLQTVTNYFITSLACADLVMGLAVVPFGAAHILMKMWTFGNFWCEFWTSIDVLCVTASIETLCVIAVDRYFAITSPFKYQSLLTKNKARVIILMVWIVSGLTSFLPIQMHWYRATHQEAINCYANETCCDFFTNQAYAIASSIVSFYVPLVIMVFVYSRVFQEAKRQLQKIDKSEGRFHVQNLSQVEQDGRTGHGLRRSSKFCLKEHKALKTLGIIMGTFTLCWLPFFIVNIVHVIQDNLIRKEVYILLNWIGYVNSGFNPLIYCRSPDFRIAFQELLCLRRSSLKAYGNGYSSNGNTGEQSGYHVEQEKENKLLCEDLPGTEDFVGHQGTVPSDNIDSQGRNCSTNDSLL
smiles,measurement,setting,value
Cc1ccc(C(=O)O)c(C)c1NC(=O)c1cc(-c2cccc(Cl)c2)cc2ccccc12,bioavailability,[1],100%
Cc1ccc(-c2cccc(CO)c2)cc1C(=O)Nc1c(C)ccc(C(=O)O)c1C,bioavailability,[2],7%
same,clearance,[3],15 mL/min/kg
same,AUC,[4],375 ng·h/mL
same,IC50,[5],59.5 nM
same,solubility at 20 h,[6],783 µg/mL
Cc1ccc(C(=O)O)c(C)c1NC(=O)c1cc(-c2cccc(CO)c2)cc2ccccc12,bioavailability,[1],6%
O=C(O)Cc1ccccc1Nc1c(Cl)cccc1Cl,inhibition,Rattus norvegicus [7],Active
same,inhibition,Rattus norvegicus [8],Active
Cc1cc(C(=O)O)cc(C)c1NC(=O)c1cc(-c2cccc(CO)c2)ccc1F,bioavailability,[2],12%
same,clearance,[3],91 mL/min/kg
same,IC50,[9],0.73 nM
same,AUC,[4],105 ng·h/mL
same,IC50,[5],47.8 nM
same,solubility at 20 h,[6],774 µg/mL
Cc1ccc(-c2cccc(CO)c2)nc1C(=O)Nc1c(C)cc(C(=O)O)cc1C,bioavailability,[2],36%
same,clearance,[3],7 mL/min/kg
same,IC50,[9],0.67 nM
same,AUC,[4],4330 ng·h/mL
same,IC50,[5],56.3 nM
same,solubility at 20 h,[6],14 µg/mL
Cc1cc(C(=O)O)cc(C)c1NC(=O)c1nc(-c2cccc(CO)c2)ccc1C(F)(F)F,bioavailability,[2],16%
same,clearance,[3],54 mL/min/kg
same,IC50,[9],0.67 nM
same,AUC,[4],243 ng·h/mL
same,IC50,[5],121 nM
same,solubility at 20 h,[6],23 µg/mL
Cc1ccc(-c2cccc(CO)c2)cc1C(=O)Nc1c(C)cc(C(=O)O)cc1C,bioavailability,[2],13%
same,clearance,[3],71 mL/min/kg
same,IC50,[9],0.28 nM
same,AUC,[4],88 ng·h/mL
same,IC50,[5],18.7 nM
same,solubility at 20 h,[6],31 µg/mL
Cc1ccc(-c2cccc(CO)c2)nc1C(=O)Nc1c(C)ccc(C(=O)O)c1C,inhibition,[10],1%
same,inhibition,[11],-3%
same,inhibition,Rattus norvegicus [12],Active
same,bioavailability,[2],22%
same,clearance,[3],2.2 mL/min/kg
same,IC50,[13],> 25 µM
same,Ki,[13],> 18.9 µM
same,IC50,Cytochrome P450 2B6,> 10 µM
same,bioavailability,[14],48%
same,IC50,Cytochrome P450 2C19,> 10 µM
same,inhibition,[15],-1%
same,Vd,[16],0.97 L/kg
same,inhibition at 10 µM,[17],-7%
same,Cmax,[18],3820 ng/mL
same,inhibition,[19],11%
same,inhibition,[20],-6%
same,IC50,Cytochrome P450 2D6,> 10 µM
same,inhibition,Rattus norvegicus [8],Active
same,inhibition at 10 µM,[21],-46%
same,IC50,Cytochrome P450 2C8,> 10 µM
same,inhibition,[22],5%
same,AUC,[23],10900 ng·h/mL
same,AUC,[4],8520 ng·h/mL
same,IC50,Cytochrome P450 2C9,> 10 µM
same,inhibition,[24],-5%
same,IC50,Cytochrome P450 3A4,> 10 µM
same,clearance,[25],3.7 mL/min/kg
same,inhibition,[26],-7%
same,Cmax,[27],1640 ng/mL
same,inhibition,[28],-2%
same,half-life,[29],66 min
same,inhibition,[30],0%
same,IC50,[31],> 25 µM
same,Ki,[31],> 17.5 µM
same,IC50,[5],38.7 nM
same,inhibition,[32],-3%
same,inhibition,Rattus norvegicus [33],-6%
same,inhibition,Rattus norvegicus [34],Dose-dependent effect
same,half-life,[35],126 min
same,inhibition (INH),[36],Not Active
same,Vd,[37],0.16 L/kg
same,IC50,Cytochrome P450 1A2,> 10 µM
same,inhibition at 10 µM,[38],-10%
same,IC50,[39],> 25 µM
same,Ki,[39],> 14 µM
same,inhibition,[40],9%
same,solubility at 20 h,[6],242 µg/mL
Cc1ccc(C(=O)O)c(C)c1NC(=O)c1nc(-c2cccc(CO)c2)ccc1C(F)(F)F,bioavailability,[2],13%
same,clearance,[3],7 mL/min/kg
same,IC50,[9],1.94 nM
same,AUC,[4],1540 ng·h/mL
same,IC50,[5],59 nM
same,solubility at 20 h,[6],29 µg/mL
Cc1ccc(-c2cccc(Cl)c2)nc1C(=O)Nc1c(C)ccc(C(=O)O)c1C,IC50,[9],1.56 nM
same,IC50,[5],637 nM
Cc1ccc(C(=O)O)c(C)c1NC(=O)c1cc(-c2cccc(CO)c2)ccc1F,F,Rattus norvegicus [41],11%
same,IC50,[9],4.49 nM
same,AUC,Rattus norvegicus [42],994 ng·h/mL
same,IC50,[5],72.4 nM
same,solubility at 20 h,[6],709 µg/mL
